The values that follow come from patent US20100261753A1, “METHODS FOR PREVENTING AND/OR TREATING DEGENERATIVE DISORDERS OF THE CENTRAL NERVOUS SYSTEM” (AMICUS THERAPEUTICS, INC., priority 2009, published 2010).

One data set concerns the target T1, GCase (Mus musculus, UniProt P17439).
T1 construct: Liver, spleen, lung, and brain tissues were removed; from tissue; host or cells: brain, spleen, liver and lung of wild-type C57BL/6 mice
T1 sequence (P17439 20-515): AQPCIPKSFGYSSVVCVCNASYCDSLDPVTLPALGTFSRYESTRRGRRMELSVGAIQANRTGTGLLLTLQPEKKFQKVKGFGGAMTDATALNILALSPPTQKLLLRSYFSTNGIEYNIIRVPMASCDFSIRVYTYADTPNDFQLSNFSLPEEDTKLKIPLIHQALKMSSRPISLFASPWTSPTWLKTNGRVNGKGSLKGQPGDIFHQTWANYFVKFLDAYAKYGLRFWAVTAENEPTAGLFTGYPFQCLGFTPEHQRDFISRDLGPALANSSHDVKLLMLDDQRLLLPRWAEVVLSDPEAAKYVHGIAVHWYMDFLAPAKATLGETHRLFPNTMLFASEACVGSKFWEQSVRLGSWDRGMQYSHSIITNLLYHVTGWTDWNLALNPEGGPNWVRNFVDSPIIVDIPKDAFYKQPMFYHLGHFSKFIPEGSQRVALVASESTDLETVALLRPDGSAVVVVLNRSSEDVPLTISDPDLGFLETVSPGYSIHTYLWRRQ
Put plainly: GCase enhancement in tissues of mice after 2-week oral dosing. It counts as in vivo, mice (C57BL/6). Particulars: for GCase Increase (-fold): nine doses over 2 weeks; for GCase enhancement in brain, spleen, liver and lung: compared to mice administered control or IFG-tartrate. The protocol:
(§1) The ability of orally administered test compounds (the hydrochloride salt form of Compound A and Compound B) to elevate GCase levels as compared to reference compound, IFG-tartrate, was assessed in mice. […] Seven animals were used per dose. The dosing solutions were prepared in water. Compounds were administered over 2 weeks as follows: week 1, Mon-Fri (On), Sat-Sun (Off); week 2, Mon-Thu (On); necropsy on Friday. Thus, a total of 9 doses (dosing solutions prepared fresh every day) were given to each mouse, with a 24-hour washout between the last dose and necropsy.
(§2) Plasma was collected by spinning blood at 2700 g for 10 minutes at 4° C. Liver, spleen, lung, and brain tissues were removed, washed in cold PBS, blotted dry, flash frozen on dry ice, and stored at −80° C. until analysis. GCase levels were measured by homogenizing approximately 50 mg tissue in 500 μl McIlvane (MI) buffer (100 mM sodium citrate, 200 mM sodium phosphate dibasic, 0.25% sodium taurocholate, and 0.1% Triton X-100, pH 5.2) at pH 5.2 for 3-5 seconds on ice with a micro homogenizer. Homogenates were then incubated at room temperature without and with 2.5 mM conduritol-B-epoxide (CBE) for 30 min. Finally, 3.7 mM 4-methylumbeliferryl-β-glucoside (4-MUG) substrate was added and incubated at 37° C. for 60 min. Reactions were stopped by addition of 0.4 M glycine, pH 10.6. Fluorescence was measured on a plate reader for 1 sec/well using 355 nm excitation and 460 nm emission. Total protein was determined in lysates using the MicroBCA kit according to the manufacturer's instructions. A 4-methylumbelliferone (4-MU) standard curve ranging from 1.0 nM to 50 μM was run in parallel for conversion of raw fluorescence data to absolute GCase activity (in the presence and absence of CBE) and expressed as nanomoles of 4-MU released per milligram of protein per hour (nmol/mg protein/hr). GCase levels and protein levels were calculated using Microsoft Excel (Redmond, Wash.) and GraphPad Prism version 4.02.

Data set [1] can be described thus: Compound concentration in brain, spleen and plasma samples of the GCase enhancement study. It counts as in vivo, mice (C57BL/6). Particulars: male, C57BL/6, mouse, po, nine doses, 24-hour washout. The protocol:
as §1, §2

Another data set can be described thus: Rat pharmacokinetics. Type of data set: in vivo, Sprague-Dawley rats. The method, then:
Pharmacokinetic (PK) data was obtained in rats to assess the bioavailability of test compound. In particular, the following PK parameters were calculated: bioavailability as measured by area under the Concentration/Time curve (AUC), fraction of dose available (% F; further defined below), clearance (CL), volume of distribution (Vd), and half-life (t½). For this purpose, 8-week old Sprague-Dawley male rats were given either a single intravenous (IV) dose equivalent to 3 mg/kg of free base or single escalating p.o. (gavage) doses of test compound equivalent to 10, 30, and 100 mg/kg of free base. Three rats were used per dosing group. Blood was collected over a 24-hr period. The time points for blood collection after intravenous administration were: 0, 2.5, 5, 10, 15, 30, 45 min, 1, 2, 4, 8, 12, and 24 hrs; time points for blood collection after p.o. administrations were: 0, 5, 15, 30, 45 min, 1, 2, 3, 4, 8, 12, and 24 hrs. Plasma samples were analyzed for compound levels by LC-MS/MS at PPD. Raw data was analyzed by non-compartmental analysis in Win-nonLin to calculate Vd, % F, CL, and […].

[2] abbreviates: brain, 100 mg/kg p.o., Table 4A.
Setting [3] is: spleen, 10 mg/kg p.o., Table 4B.
[4] abbreviates: spleen, 100 mg/kg p.o., Table 4B.
[5] abbreviates: male, Sprague-Dawley, plasma, IV, 3 mg/kg free base.

Where a name gives a salt, the structure may show the parent alone. Read-outs that look alike come from different tables or passages of the source.

Take `O[C@@H]1[C@@H](CCl)CNC[C@H]1O` [Compound B, (3R,4R,5S)-5-(chloromethyl)piperidine-3,4-diol]: the “GCase Increase (-fold)” value on GCase (brain, 10 mg/kg p.o., Table 4A) is 1.3 -fold; at GCase (setting [2]) it was 3.5 -fold; on GCase (setting [3]), 1.4 -fold; on GCase (setting [4]), 2.2 -fold. The “GCase enhancement in brain, spleen, liver and lung” value on GCase is “statistically significant greater GCase enhancement”. Moreover, the concentration at 24 h came out at 246 ± 42 nM in data set [1] (brain, 10 mg/kg p.o., Table 4A); 2070 ± 231 nM in data set [1] (setting [2]); 104 ± 15 nM in data set [1] (plasma, 10 mg/kg p.o., Table 4C); 1530 ± 601 nM in data set [1] (plasma, 100 mg/kg p.o., Table 4C); 645 ± 214 nM in data set [1] (setting [3]); 2160 ± 464 nM in data set [1] (setting [4]).
A word on the Cmax: it is the maximum level reached in the sampled fluid or tissue. In general, Vd refers to the apparent volume that relates the amount in the body to the concentration in plasma or blood. A low value points to confinement near the circulation. By clearance is commonly meant a measure of how efficiently the substance is removed, as volume per time. A high value points to efficient removal. As usually defined, the AUC(0-t) is the area under the concentration-time curve up to a stated or last time point. Take `O[C@@H]1CNCC(CF)[C@H]1O` (stereo in doubt) [Compound A, (3R,4R,5R)-5-(fluoromethyl)piperidine-3,4-diol]: the CL in the data set “Rat pharmacokinetics” (PO, 30 mg/kg free base) stood at 66.82 ± 8.48 mL/min/kg; in the data set “Rat pharmacokinetics” (PO, 100 mg/kg free base), 56.55 ± 3.48 mL/min/kg. Besides, the VD in “Rat pharmacokinetics” (PO, 30 mg/kg free base) was determined as 13.532 ± 3.291 L/kg; in the data set “Rat pharmacokinetics” (PO, 100 mg/kg free base), 13.101 ± 1.518 L/kg. Also, the Cmax worked out at 7270 ± 139 ng/mL in the data set “Rat pharmacokinetics” (setting [5]); 1290 ± 271 ng/mL in “Rat pharmacokinetics” (male, Sprague-Dawley, plasma, PO, 10 mg/kg free base); 2870 ± 355 ng/mL in the data set “Rat pharmacokinetics” (male, Sprague-Dawley, plasma, PO, 30 mg/kg free base); 9390 ± 742 ng/mL in “Rat pharmacokinetics” (male, Sprague-Dawley, plasma, PO, 100 mg/kg free base). The same compound returned a Vd in “Rat pharmacokinetics” (setting [5]) of 3.48 ± 0.232 L/kg. This compound gave a clearance in the data set “Rat pharmacokinetics” (setting [5]) of 27.8 mL/min/kg. In addition, the AUC(0-t) in the data set “Rat pharmacokinetics” (male, Sprague-Dawley, plasma, IV, 3 mg/kg free base (3.72 mg/kg salt)) was determined as 1800 ± 42.7 ng·h/mL; in the data set “Rat pharmacokinetics” (male, Sprague-Dawley, plasma, PO, 10 mg/kg free base (12.4 mg/kg salt)), 2980 ± 228 ng·h/mL; in “Rat pharmacokinetics” (male, Sprague-Dawley, plasma, PO, 30 mg/kg free base (37.2 mg/kg salt)), 8250 ± 388 ng·h/mL; in the data set “Rat pharmacokinetics” (male, Sprague-Dawley, plasma, PO, 100 mg/kg free base (124 mg/kg salt)), 29600 ± 1750 ng·h/mL. Also, the half-life was 1.4 ± 0.1 h in “Rat pharmacokinetics” (male, Sprague-Dawley, plasma, IV, 3 mg/kg free base, read-out: t1/2 (converted)); 1.2 ± 0.4 h in “Rat pharmacokinetics” (male, Sprague-Dawley, plasma, PO, 10 mg/kg free base, read-out: t1/2 (converted)); 2.3 ± 0.3 h in “Rat pharmacokinetics” (male, Sprague-Dawley, plasma, PO, 30 mg/kg free base, read-out: t1/2 (converted)); 2.6 ± 0.1 h in “Rat pharmacokinetics” (male, Sprague-Dawley, plasma, PO, 100 mg/kg free base, read-out: t1/2 (converted)). Also, the bioavailability in “Rat pharmacokinetics” (male, Sprague-Dawley, plasma, PO, 10 mg/kg free base, read-out: % F) turned out to be 50 ± 3.8%; in “Rat pharmacokinetics” (male, Sprague-Dawley, plasma, PO, 30 mg/kg free base, read-out: % F), 46 ± 2.5%; in the data set “Rat pharmacokinetics” (male, Sprague-Dawley, plasma, PO, 100 mg/kg free base, read-out: % F), 49 ± 2.7%. Besides, the concentration at 24 h in data set [1] (brain, 10 mg/kg p.o., Table 3A) amounted to 124 ± 11 nM; in data set [1] (brain, 100 mg/kg p.o., Table 3A), 726 ± 51 nM; in data set [1] (plasma, 10 mg/kg p.o., Table 3C) it was 32 ± 2.4 nM; in data set [1] (plasma, 100 mg/kg p.o., Table 3C), 254 ± 73.5 nM; in data set [1] (spleen, 10 mg/kg p.o., Table 3B), 69 ± 6 nM; in data set [1] (spleen, 100 mg/kg p.o., Table 3B), 304 ± 63 nM.
Take `O[C@@H]1CNCC(CF)[C@H]1O` (stereo in doubt) [Compound A-HCl, (3R,4R,5R)-5-(fluoromethyl)piperidine-3,4-diol hydrochloride]: at GCase, the “GCase enhancement in brain, spleen, liver and lung” value is reported as “statistically significant greater GCase enhancement”. In addition, the bioavailability in “Rat pharmacokinetics” (male, Sprague-Dawley, plasma, po, read-out: oral bioavailability) was about 50%. Further, the half-life in “Rat pharmacokinetics” (male, Sprague-Dawley, plasma, read-out: half-life) is 1 to 2.5 h.
